One block for each molecule: values may come before it.
Experiments:
[1] = molecular target: T1, TauF (BwTauF, sulfoacetaldehyde reductase) (Bilophila wadsworthia, UniProt E5Y946); assay: NADH oxidation at […] nm; type: biochemical; settings: 5 mM sulfoacetaldehyde (introduced as bisulfite adduct), 0.5 mM NADH, 0.1 M Tris pH 7.5, 0.1 M KCl
T1 construct: gene sarD; codon-optimised, His6-TEV (HT) vector, E. coli
T1 sequence (E5Y946 1-387): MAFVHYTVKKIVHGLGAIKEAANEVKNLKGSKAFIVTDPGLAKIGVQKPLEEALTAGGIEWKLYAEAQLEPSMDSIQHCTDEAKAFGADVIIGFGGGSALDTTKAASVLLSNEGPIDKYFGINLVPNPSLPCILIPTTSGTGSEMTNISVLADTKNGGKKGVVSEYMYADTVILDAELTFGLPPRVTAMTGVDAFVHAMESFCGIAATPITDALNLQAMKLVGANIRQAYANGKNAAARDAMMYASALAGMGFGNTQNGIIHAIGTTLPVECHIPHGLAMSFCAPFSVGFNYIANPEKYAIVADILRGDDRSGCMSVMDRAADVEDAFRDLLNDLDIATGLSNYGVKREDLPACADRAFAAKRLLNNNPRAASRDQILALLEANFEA

[2] = molecular target: T2, DpIseK (substrate-binding subunit of the IseG-associated TRAP transporter) (Desulfovibrio piger, UniProt A0A1K1LFE7); assay: isothermal titration calorimetry
T2 construct: gene DESPIGER_1592; soluble periplasmic subunit, codon-optimised, expressed as His6-MBP-TEV fusion; MBP tag cleaved and removed before ITC

[3] = molecular target: IseG (−23 a.a.), isethionate sulfo-lyase from Desulfovibrio vulgaris Hildenborough with an N-terminal 23-a.a. truncation (Desulfovibrio vulgaris Hildenborough) (UniProt Q727N1); assay: SEC; 2.5 mg/mL IseG (−23 a.a.), 2 mL on a Superdex 200 column (300 mL), buffer D (10 mM HEPES/KOH pH 7.4, 250 mM KCl, 10 mM BME), 3 mL/min; mass from elution volume against molecular weight markers (observed 196 kDa, monomer calculated 91.3 kDa)
purified protein = substrate: O=S(=O)(O)CCO; assay: purified protein; type: biochemical, Nitratidesulfovibrio vulgaris; settings: IseG activated by IseH, SAM and Ti(III) citrate; anaerobic, room temperature, 250 nM IseG

T2 sequence (A0A1K1LFE7 24-332): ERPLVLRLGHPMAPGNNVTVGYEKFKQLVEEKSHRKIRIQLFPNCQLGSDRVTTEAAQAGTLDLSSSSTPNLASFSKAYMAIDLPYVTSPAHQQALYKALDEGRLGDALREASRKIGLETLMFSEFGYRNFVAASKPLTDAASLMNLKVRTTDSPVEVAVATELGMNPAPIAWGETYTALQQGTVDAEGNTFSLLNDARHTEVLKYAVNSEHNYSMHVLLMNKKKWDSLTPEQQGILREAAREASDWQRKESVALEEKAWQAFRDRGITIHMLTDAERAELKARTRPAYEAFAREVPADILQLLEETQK

Molecule: NC(=O)C1=CN([C@@H]2O[C@H](COP(=O)(O)OP(=O)(O)OC[C@H]3O[C@@H](n4cnc5c(N)ncnc54)[C@H](O)[C@@H]3O)[C@@H](O)[C@H]2O)C=CC1 [NADH]
- NADH oxidation at 340 nm [1]: demonstrates that BwTauF is a sulfoacetaldehyde reductase

- Kd [2]: 500 nM
Molecule: O=S(=O)(O)CCO [isethionate]

Molecule: O=CCS(=O)(=O)O [sulfoacetaldehyde]
- NADH oxidation at 340 nm [1]: TauF, catalyzed NADH-dependent reduction of sulfoacetaldehyde

- stoichiometry N [3]: 2
Molecule: IseG (−23 a.a.), isethionate sulfo-lyase from Desulfovibrio vulgaris Hildenborough with an N-terminal 23-a.a. truncation (from UniProt Q727N1 24-828) (enzyme)

B1: IseG (GUF, isethionate sulfo-lyase) (Nitratidesulfovibrio vulgaris str. Hildenborough) (protein)
chain: MQCCNQLSPHEQRLQDKIEGKVDRYRATHERVFTILESFDNTRPRIDVERAKYFTESMKATEGQPLPLRWAKALMHIAENMTVYIDDHQLICGRAGYQGRYGVLYPELDGDFLGTAIEDLPNRAESPFAITPEDARVVVEEIAPFWKGKTYHEALNLALPADVHKLTYDDPQGLMSRFIVNETSSFRSSIQWVHDYEKVLKRGFRSIKEEALEKIAALDPMSPCDNVEKRPFLEAIVIVCDAIILWAKRHAKLAAELAAKETDPTRKRELETMAEICAWVPENPARTFHEAVQAQWFTQVFSRIEQKTGTIVSNGRMDQYFWPFYEKDLAEGRITEDSALELLECMWVGMAQYVDLYISPTGGAFNEGYAHWEAVTIGGQTPEGRDATNDLTYLFLKSKREFPLHYPDLAARIHSRSPERYLWEVAETIKDGSGFPKLINDEEVVPLYVSKGATFAEALDYAVSGCTEARMPNRDTYTSGGAYINFAAALEMVLYNGKMLKYGDTDLGAHTGDPCEFKTWEEFWNAYVTQHHLFLKTAFVQQHIINNLRARHFAQPMGSSLHDLCMKHCLDLHTPQIPEGINLGYFEYMGFGTVVDSLSAIKKLVFEDKKLTMGELIEALKCNFEGKEDIQQLLKSAPCYGNNDDYADSIARDIDALSVKYGRRYSPELGMHNDVRYVPFTSHVPFGRVVSATPNGRKAWSALSDGSSASHGADVNGPTAILQSNFNSKNYGMRDRAARMLNIKFTPKCVEGEEGSQKLVSFIRTFCDLKLWHVQFNVINKETLLAAQRDPEKYRNLIVRIAGYSAYFVDLSPDLQNDLIARTGHDVM
notes: pET-28a(+)-His6-IseG, codon-optimised, full length, His tag kept, E. coli BL21(DE3); dimer; glycyl radical installed by IseH/SAM/Ti(III) citrate
- Km (purified protein): 44.8 ± 3.5 mM
- kcat (purified protein): 91.6 ± 3.3 s⁻¹
